In patent US11613542B2, “Sulfonylureas and sulfonylthioureas as NLRP3 inhibitors” (Inflazome Limited, priority 2017, dated 2023):
Where a name gives a salt, the structure may show the parent alone.

Experiments:
NLRP3 [1] = target: T1, NLRP3 (Homo sapiens, UniProt Q96P20); test: THP-1 cells pyroptosis assay; format: cell-based; parameters: Seed THP-1 cells (25,000 cells/well) containing 1.0 μg/ml LPS; host or cells: THP-1 cells, LPS-primed, nigericin-stimulated
Summary of the method: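 THP-1 cells (25,000/well) in serum-free RPMI with 1.0 μg/ml LPS, treated with compound (8-point half-log dilution, 10 μM top, 0.1% DMSO), then nigericin 5 μM final. Viability read by resazurin (100 μM final, 1-2 h, 37° C) fluorescence Ex 560/Em 590 nm; IC50 from 4-parameter variable-slope fit.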

NLRP3 [2] = target: T1, NLRP3; test: Human whole blood IL1β release assay; format: cell-based; parameters: Human whole blood in Li-heparin tubes was obtained from healthy donors; from tissue; host or cells: human whole blood from healthy donors, LPS-primed, nigericin-stimulated
Method: Human Whole Blood IL1β Release Assay
For systemic delivery, the ability to inhibit NLRP3 when the compounds are present within the bloodstream is of great importance. For this reason, the NLRP3 inhibitory activity of a number of compounds in human whole blood was investigated in accordance with the following protocol.
Human whole blood in Li-heparin tubes was obtained from healthy donors from a volunteer donor panel. • 1. Plate out 80 μl of whole blood containing 1 μg/ml of LPS in 96-well, clear bottom cell culture plate (Corning #3585) • 2. Add 10 μl compound (8 points half-log dilution with 10 μM top dose) or vehicle (DMSO 0.1% FAC) to the appropriate wells • 3. Incubate for 3 hrs at 37° C., 5% CO2 • 4. Add 10 μl Nigericin (Sigma #N7143) (10 μM FAC) to all wells • 5. Incubate for 1 hr at 37° C., 5% CO2 • 6. At the end of the incubation period, spin plates at 300 xg for 5 mins to pellet cells and remove 20 μl of supernatant and add to 96-well v-bottom plates for IL-1β analysis (note: these plates containing the supernatants can be stored at −80° C. to be analysed at a later date) • 7. IL-1β was measured according to the manufacturer protocol (Perkin Elmer-AlphaLisa IL-1 Kit AL220F-5000) • 8. IC50 data is fitted to a non-linear regression equation (log inhibitor vs response-variable slope 4-parameters)

[3] = THP-1 cells, 1.0 μg/ml LPS, compound 3 hrs, nigericin 5 μM 1 hr, resazurin readout, read-out: THP IC50
[4] = human whole blood, 1 μg/ml LPS, compound 3 hrs, nigericin 10 μM 1 hr, IL-1β AlphaLisa, read-out: HWB IC50

T1 sequence (Q96P20 whole entry): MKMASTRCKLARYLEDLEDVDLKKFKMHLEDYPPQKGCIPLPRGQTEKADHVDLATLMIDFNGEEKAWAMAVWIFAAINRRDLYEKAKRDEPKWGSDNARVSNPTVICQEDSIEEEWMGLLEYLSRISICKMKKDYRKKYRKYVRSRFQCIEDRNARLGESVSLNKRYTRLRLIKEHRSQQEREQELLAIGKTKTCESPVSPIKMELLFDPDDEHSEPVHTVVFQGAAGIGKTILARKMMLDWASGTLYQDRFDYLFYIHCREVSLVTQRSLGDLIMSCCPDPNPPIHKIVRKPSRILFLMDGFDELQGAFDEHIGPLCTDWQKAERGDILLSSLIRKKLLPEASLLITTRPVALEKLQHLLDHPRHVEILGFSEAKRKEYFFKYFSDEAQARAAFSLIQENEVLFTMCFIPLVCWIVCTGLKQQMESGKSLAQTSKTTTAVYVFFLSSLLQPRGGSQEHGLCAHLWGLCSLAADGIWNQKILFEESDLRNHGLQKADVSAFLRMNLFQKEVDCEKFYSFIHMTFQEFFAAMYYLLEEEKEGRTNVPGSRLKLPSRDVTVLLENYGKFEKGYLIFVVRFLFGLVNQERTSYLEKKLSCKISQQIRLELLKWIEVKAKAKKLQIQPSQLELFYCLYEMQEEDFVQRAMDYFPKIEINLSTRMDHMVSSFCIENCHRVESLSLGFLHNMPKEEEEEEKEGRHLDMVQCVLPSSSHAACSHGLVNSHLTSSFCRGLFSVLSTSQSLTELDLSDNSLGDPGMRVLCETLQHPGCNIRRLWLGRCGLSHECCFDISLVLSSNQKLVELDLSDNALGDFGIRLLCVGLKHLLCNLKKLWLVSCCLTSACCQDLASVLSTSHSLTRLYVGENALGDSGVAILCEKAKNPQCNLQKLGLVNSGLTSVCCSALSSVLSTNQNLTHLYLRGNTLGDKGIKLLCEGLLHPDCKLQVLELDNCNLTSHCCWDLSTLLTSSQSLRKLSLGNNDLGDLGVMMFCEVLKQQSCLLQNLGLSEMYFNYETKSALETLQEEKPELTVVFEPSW

Structure (SMILES) | IC50 (NLRP3 [1]; [3]) [nM] | IC50 (NLRP3 [2]; [4]) [nM] | IC50 (NLRP3 [1]) [nM] | IC50 (NLRP3 [2]) [nM]
CNC(=O)c1cc(S(=O)(=O)NC(=O)Nc2c(C(C)C)cc(Cl)cc2C(C)C)nn1C [Example 132, 3-(N-((4-chloro-2,6-diisopropylphenyl)carbamoyl)sulfamoyl)-N,1-dimethyl-1H-pyrazole-5-carboxamide] | < 640 | < 3200 | – | –
COc1cc(-c2ccc3c(c2NC(=O)NS(=O)(=O)c2ccn(C(C)(C)C#N)n2)CCO3)ccn1 [Example 190, 1-(2-Cyanopropan-2-yl)-N-((5-(2-methoxypyridin-4-yl)-2,3-dihydrobenzofuran-4-yl)carbamoyl)-1H-pyrazole-3-sulfonamide] | < 160 | < 400 | – | –
COc1cc(-c2ccc3c(c2NC(=O)NS(=O)(=O)c2ccn(C4CCN(C)C4)n2)CCC3)ccn1 (stereo not shown) [Example 193, N-((5-(2-Methoxypyridin-4-yl)-2,3-dihydro-1H-inden-4-yl)carbamoyl)-1-(1-methylpyrrolidin-3-yl)-1H-pyrazole-3-sulfonamide, sodium salt] | < 40 | < 400 | – | –
CN1CC(Cn2ccc(S(=O)(=O)NC(=O)Nc3c4c(cc5c3CCC5)CCC4)n2)C1 [Example 19, N-((1,2,3,5,6,7-Hexahydro-s-indacen-4-yl)carbamoyl)-1-((1-methylazetidin-3-yl)methyl)-1H-pyrazole-3-sulfonamide] | < 640 | < 3200 | – | –
CC(C)c1cccc(C(C)C)c1NC(=O)NS(=O)(=O)c1cc(C(=O)N(C)C2CC2)n(C)n1 [Example 143, N-Cyclopropyl-3-(N-((2,6-diisopropylphenyl)carbamoyl)sulfamoyl)-N,1-dimethyl-1H-pyrazole-5-carboxamide] | < 160 | < 1600 | – | –
CN(C)C(=O)Cn1ccc(S(=O)(=O)NC(=O)Nc2c3c(cc4c2CCC4)CCC3)n1 [Example 1, 2-(3-(N-((1,2,3,5,6,7-Hexahydro-s-indacen-4-yl)carbamoyl)sulfamoyl)-1H-pyrazol-1-yl)-N,N-dimethylacetamide, sodium salt] | < 640 | < 10000 | – | –
CNCC(C)(C)n1ccc(S(=O)(=O)NC(=O)Nc2c(-c3ccnc(OC)c3)ccc3c2CCC3)n1 [Example 191, N-((5-(2-Methoxypyridin-4-yl)-2,3-dihydro-1H-inden-4-yl)carbamoyl)-1-(2-methyl-1-(methylamino)propan-2-yl)-1H-pyrazole-3-sulfonamide, sodium salt] | < 40 | < 400 | – | –
CN(CC#N)C(=O)c1cc(S(=O)(=O)NC(=O)Nc2c3c(cc4c2CCC4)CCC3)nn1C [Example 153, N-(Cyanomethyl)-3-(N-((1,2,3,5,6,7-hexahydro-s-indacen-4-yl)carbamoyl)sulfamoyl)-N,1-dimethyl-1H-pyrazole-5-carboxamide, partial ammonium salt] | < 640 | < 1600 | – | –
CC(C)c1cc(Cl)cc(C(C)C)c1NC(=O)NS(=O)(=O)c1cc(C(=O)N(C)CCO)n(C)n1 [Example 172, 3-(N-((4-Chloro-2,6-diisopropylphenyl)carbamoyl)sulfamoyl)-N-(2-hydroxyethyl)-N,1-dimethyl-1H-pyrazole-5-carboxamide] | – | – | < 160 | < 1600
CNC(=O)c1cc(S(=O)(=O)NC(=O)Nc2c(C(C)C)cc(F)cc2C(C)C)nn1C [Example 150, 3-(N-((4-Fluoro-2,6-diisopropylphenyl)carbamoyl)sulfamoyl)-N,1-dimethyl-1H-pyrazole-5-carboxamide] | < 640 | < 400 | – | –
Cn1ccnc1Cn1ccc(S(=O)(=O)NC(=O)Nc2c3c(cc4c2CCC4)CCC3)n1 [Example 118, N-((1,2,3,5,6,7-Hexahydro-s-indacen-4-yl)carbamoyl)-1-((1-methyl-1H-imidazol-2-yl)methyl)-1H-pyrazole-3-sulfonamide] | < 40 | < 800 | – | –
CNC(=O)Cn1ccc(S(=O)(=O)NC(=O)Nc2c3c(cc4c2CCC4)CCC3)n1 [Example 2, 2-(3-(N-((1,2,3,5,6,7-Hexahydro-s-indacen-4-yl)carbamoyl)sulfamoyl)-1H-pyrazol-1-yl)-N-methylacetamide] | < 640 | < 3200 | – | –
CCN(C)C(=O)c1cc(S(=O)(=O)NC(=O)Nc2c(C(C)C)cccc2C(C)C)nn1C [Example 156, 3-(N-((2,6-Diisopropylphenyl)carbamoyl)sulfamoyl)-N-ethyl-N,1-dimethyl-1H-pyrazole-5-carboxamide] | < 2560 | < 3200 | – | –

Now from value to compound, other results behind:

IC50 (NLRP3 [1]; [3]) [nM] | IC50 (NLRP3 [2]; [4]) [nM] | Structure (SMILES) | IC50 (NLRP3 [1]) [nM] | IC50 (NLRP3 [2]) [nM]
< 640 | < 800 | CC(C)c1cccc(C(C)C)c1NC(=O)NS(=O)(=O)c1cc(C(=O)N(C)C(C)C)n(C)n1 [Example 158, 3-(N-((2,6-Diisopropylphenyl)carbamoyl)sulfamoyl)-N-isopropyl-N,1-dimethyl-1H-pyrazole-5-carboxamide] | – | –
< 160 | < 800 | CC(C)c1cc(F)cc(C(C)C)c1NC(=O)NS(=O)(=O)c1cc(C(=O)N(C)C(C)C)n(C)n1 [Example 147, 3-(N-((4-Fluoro-2,6-diisopropylphenyl)carbamoyl)sulfamoyl)-N-isopropyl-N,1-dimethyl-1H-pyrazole-5-carboxamide] | – | –
< 160 | < 800 | CNCC(C)(C)n1ccc(S(=O)(=O)NC(=O)Nc2c3c(cc4c2CCC4)CCC3)n1 [Example 204, N-((1,2,3,5,6,7-Hexahydro-s-indacen-4-yl)carbamoyl)-1-(2-methyl-1-(methylamino)propan-2-yl)-1H-pyrazole-3-sulfonamide, sodium salt] | – | –
< 160 | < 1600 | CCN(CC)C(=O)c1cc(S(=O)(=O)NC(=O)Nc2c3c(cc4c2CCC4)CCC3)nn1C [Example 165, N,N-diethyl-3-(N-((1,2,3,5,6,7-Hexahydro-s-indacen-4-yl)carbamoyl)sulfamoyl)-1-methyl-1H-pyrazole-5-carboxamide] | – | –
< 40 | < 400 | COc1cc(-c2ccc3c(c2NC(=O)NS(=O)(=O)c2ccn(C(C)(C)CN(C)C)n2)CCC3)ccn1 [Example 178, 1-(1-(Dimethylamino)-2-methylpropan-2-yl)-N-((5-(2-methoxypyridin-4-yl)-2,3-dihydro-1H-inden-4-yl)carbamoyl)-1H-pyrazole-3-sulfonamide] | – | –
< 40 | < 400 | CN(C)CC(C)(C)n1ccc(S(=O)(=O)NC(=O)Nc2c(-c3ccnc(OC4CC4)c3)ccc3c2CCC3)n1 [Example 194, N-((5-(2-Cyclopropoxypyridin-4-yl)-2,3-dihydro-1H-inden-4-yl)carbamoyl)-1-(1-(dimethylamino)-2-methylpropan-2-yl)-1H-pyrazole-3-sulfonamide, sodium salt] | – | –
< 160 | < 3200 | CC(C)N(C)C(=O)c1cc(S(=O)(=O)NC(=O)Nc2c3c(cc4c2CCC4)CCC3)nn1C [Example 164, 3-(N-((1,2,3,5,6,7-Hexahydro-s-indacen-4-yl)carbamoyl)sulfamoyl)-N-isopropyl-N,1-dimethyl-1H-pyrazole-5-carboxamide] | – | –
< 640 | < 3200 | N#CCn1ccc(S(=O)(=O)NC(=O)Nc2c3c(cc4c2CCC4)CCC3)n1 [Example 34, 1-(Cyanomethyl)-N-((1,2,3,5,6,7-hexahydro-s-indacen-4-yl)carbamoyl)-1H-pyrazole-3-sulfonamide] | – | –
< 2560 | < 1600 | CN1CC(n2ccc(S(=O)(=O)NC(=O)Nc3c4c(cc5c3CCC5)CCC4)n2)C1 [Example 12, N-((1,2,3,5,6,7-Hexahydro-s-indacen-4-yl)carbamoyl)-1-(1-methylazetidin-3-yl)-1H-pyrazole-3-sulfonamide] | – | –
< 40 | < 400 | CN(C)CC(C)(C)n1ccc(S(=O)(=O)NC(=O)Nc2c(-c3ccnc(C#N)c3)ccc3c2CCC3)n1 [Example 196, N-((5-(2-Cyanopyridin-4-yl)-2,3-dihydro-1H-inden-4-yl)carbamoyl)-1-(1-(dimethylamino)-2-methylpropan-2-yl)-1H-pyrazole-3-sulfonamide] | – | –
